In general, Emax refers to the greatest response seen or fitted, relative to the assay's reference.

The target in assay [1] is T1, human muscarinic M4 receptor (Homo sapiens, UniProt P08173).
T1 construct: expressed in transfected cells
T1 sequence (P08173 1-479): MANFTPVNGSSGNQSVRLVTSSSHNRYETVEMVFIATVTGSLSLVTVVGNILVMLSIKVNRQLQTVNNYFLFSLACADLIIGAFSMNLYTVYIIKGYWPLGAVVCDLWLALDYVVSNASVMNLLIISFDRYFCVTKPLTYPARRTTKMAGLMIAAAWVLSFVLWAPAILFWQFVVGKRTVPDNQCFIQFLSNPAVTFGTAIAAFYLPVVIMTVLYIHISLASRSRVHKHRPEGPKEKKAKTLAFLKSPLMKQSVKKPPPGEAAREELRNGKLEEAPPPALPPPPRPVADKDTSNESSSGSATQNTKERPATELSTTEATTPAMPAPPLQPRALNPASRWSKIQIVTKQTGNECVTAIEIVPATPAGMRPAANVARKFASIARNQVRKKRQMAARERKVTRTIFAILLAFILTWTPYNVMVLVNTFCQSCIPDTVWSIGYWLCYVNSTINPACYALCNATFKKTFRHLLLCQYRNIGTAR
Nature of the assay: Alphascreen Surefire phospho-ERK1/2 functional assay, M4. Type of assay: cell-based. The settings on record: for EC50: phospho-ERK1/2, * = variable results; for Emax: CHO.

The target of assay [2] is T2, human muscarinic M1 receptor (Homo sapiens, UniProt P11229).
T2 sequence (P11229 1-460): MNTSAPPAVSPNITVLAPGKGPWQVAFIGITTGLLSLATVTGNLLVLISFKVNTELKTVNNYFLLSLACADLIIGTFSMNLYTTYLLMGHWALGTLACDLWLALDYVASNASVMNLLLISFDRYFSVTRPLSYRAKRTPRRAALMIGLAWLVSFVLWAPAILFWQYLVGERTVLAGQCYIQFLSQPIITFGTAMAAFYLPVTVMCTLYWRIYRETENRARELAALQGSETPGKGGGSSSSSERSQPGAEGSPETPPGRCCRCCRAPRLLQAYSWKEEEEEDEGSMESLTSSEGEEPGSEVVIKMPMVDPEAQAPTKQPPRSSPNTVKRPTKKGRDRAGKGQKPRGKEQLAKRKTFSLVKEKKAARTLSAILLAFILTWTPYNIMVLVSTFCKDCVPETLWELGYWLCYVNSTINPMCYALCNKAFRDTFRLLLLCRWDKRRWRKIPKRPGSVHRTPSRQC
Nature of the assay: Alphascreen Surefire phospho-ERK1/2 functional assay, M1. The assay is classed as cell-based. The settings on record: for EC50: phospho-ERK1/2, * = variable results; for Emax: CHO. A general note: In Alpha technology, singlet oxygen from a donor bead excites a nearby acceptor bead.

In assay [3] the target is human muscarinic M3 receptor (Homo sapiens, UniProt P20309). The assay can be described thus: Alphascreen Surefire phospho-ERK1/2 functional assay, M3. The note with it: for Emax: CHO; for EC50: pEC50 M3, CHO cells stably expressing human M3, phospho-ERK1/2, * = variable results.
The target in assay [4] is T3, human muscarinic M2 receptor (Homo sapiens, UniProt P08172).
T3 sequence (P08172 1-466): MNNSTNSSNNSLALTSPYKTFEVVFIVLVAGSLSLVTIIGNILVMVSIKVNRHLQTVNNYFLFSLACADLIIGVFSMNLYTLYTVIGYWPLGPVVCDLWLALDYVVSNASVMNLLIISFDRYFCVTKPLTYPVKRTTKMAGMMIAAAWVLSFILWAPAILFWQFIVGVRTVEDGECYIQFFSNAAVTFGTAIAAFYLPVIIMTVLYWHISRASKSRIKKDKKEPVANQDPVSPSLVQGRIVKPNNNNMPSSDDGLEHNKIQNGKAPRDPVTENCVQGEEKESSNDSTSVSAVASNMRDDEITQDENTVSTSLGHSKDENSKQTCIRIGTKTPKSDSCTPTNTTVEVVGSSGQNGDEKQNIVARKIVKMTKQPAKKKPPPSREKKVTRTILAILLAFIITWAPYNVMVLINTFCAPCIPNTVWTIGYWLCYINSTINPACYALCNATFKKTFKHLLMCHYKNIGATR
Nature of the assay: Alphascreen Surefire phospho-ERK1/2 functional assay, M2. The note with it: for Emax: CHO.

Where [5] appears, read: CHO cells stably expressing human M4, read-out: pEC50 M4 (converted).
Setting [6] is: read-out: % Emax cf. ACh, M4, CHO cells stably expressing human M4, relative to ACh.
The mark [7] stands for this setting: CHO cells stably expressing human M1, read-out: pEC50 M1 (converted).
Setting [8] is: read-out: % Emax cf. ACh, M1, CHO cells stably expressing human M1, relative to ACh.
Where [9] appears, read: read-out: % Emax cf. ACh, M3, CHO cells stably expressing human M3, relative to ACh.
Where [10] appears, read: read-out: % Emax cf. ACh, M2, CHO cells stably expressing human M2, relative to ACh.

Like-named read-outs stand apart in the source and are kept apart here.

human muscarinic M3 receptor, sequence (P20309 whole entry): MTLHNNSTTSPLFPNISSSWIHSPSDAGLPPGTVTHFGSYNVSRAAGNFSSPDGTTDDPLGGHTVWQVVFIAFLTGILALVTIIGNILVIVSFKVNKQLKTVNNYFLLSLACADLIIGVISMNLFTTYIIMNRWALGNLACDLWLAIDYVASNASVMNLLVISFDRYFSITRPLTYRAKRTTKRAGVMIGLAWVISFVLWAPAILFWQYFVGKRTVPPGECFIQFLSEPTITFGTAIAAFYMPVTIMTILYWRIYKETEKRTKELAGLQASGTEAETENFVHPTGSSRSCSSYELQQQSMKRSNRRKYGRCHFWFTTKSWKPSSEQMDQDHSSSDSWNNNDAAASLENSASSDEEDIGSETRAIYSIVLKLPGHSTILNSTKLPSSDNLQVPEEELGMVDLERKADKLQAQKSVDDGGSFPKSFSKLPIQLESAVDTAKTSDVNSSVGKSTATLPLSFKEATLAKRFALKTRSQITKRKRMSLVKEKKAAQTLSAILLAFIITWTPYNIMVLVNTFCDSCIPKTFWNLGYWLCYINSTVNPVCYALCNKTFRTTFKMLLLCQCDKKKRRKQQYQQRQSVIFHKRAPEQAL

Take `COC(=O)N1CCC2(CC(N3CCC([C@@H]4CCCN4c4ccccn4)CC3)C2)C1` (single isomer, unassigned) [2-78 Isomer 2]: the EC50 in assay [1] (setting [5]) is 126 nM; in assay [2] (setting [7]) it was more than 20000 nM; in assay [3], more than 20 µM; in assay [4], 12.6 µM. The Emax was determined as 49% in assay [1] (setting [6]), 11% in assay [2] (setting [8]), 5% in assay [3] (setting [9]) and 27% in assay [4] (setting [10]).
For `CCOC(=O)N1CCC2(CC(N3CCC([C@@H]4CCCN4C(=O)N(C)C)CC3)C2)C1` (single isomer, unassigned) [2-21 Isomer 2], the EC50 in assay [1] (setting [5]) is 7.94 nM; in assay [2] (setting [7]) it was 631 nM; in assay [3], more than 20 µM; in assay [4] it was more than 20 µM. Further, the Emax was determined as 113% in assay [1] (setting [6]), 46% in assay [2] (setting [8]), 2% in assay [3] (setting [9]) and 4% in assay [4] (setting [10]).
As for `CCOC(=O)N1CCC2(CC(N3CCC(OC)(c4ncc[nH]4)CC3)C2)C1` (single isomer, unassigned) [1-38 Isomer 2, ethyl 2-[4-(1H-imidazol-2-yl)-4-methoxypiperidin-1-yl]-6-azaspiro[3.4]octane-6-carboxylate], the Emax in assay [1] (read-out: % Emax cf. ACh, M4) worked out at 98%; in assay [2] (read-out: % Emax cf. ACh, M1), 31%; in assay [3] (read-out: % Emax cf. ACh, M3), 19%; in assay [4] (read-out: % Emax cf. ACh, M2), 14%. The EC50 is 794 nM in assay [1] (pEC50 M4, CHO cells stably expressing human M4); 100 nM in assay [2] (pEC50 M1, CHO cells stably expressing human M1); more than 20 µM in assay [3]; more than 20 µM in assay [4].
As to `CCOC(=O)N1CCC2(CC(N3CCC(C4CCCN4)CC3)C2)C1` (single isomer, unassigned) [2-1 Isomer 2, ethyl 2-[4-(pyrrolidin-2-yl)piperidin-1-yl]-6-azaspiro[3.4]octane-6-carboxylate], the EC50 in assay [1] (setting [5]) is 316 nM; in assay [2] (setting [7]), more than 20000 nM; in assay [3] it was more than 20 µM; in assay [4], more than 20 µM. The Emax in assay [1] (setting [6]) was determined as 63%; in assay [2] (setting [8]) it was 6%.
Consider `CCOC(=O)N1CCC2(CC(N3CCC(c4nccn4C)CC3)C2)C1` (single isomer, unassigned) [1-7 Isomer 2, ethyl 2-[4-(1-methyl-1H-imidazol-2-yl)piperidin-1-yl]-6-azaspiro[3.4]octane-6-carboxylate], for which the EC50 is 25.1 nM in assay [1] (setting [5]), 158 nM in assay [2] (setting [7]), more than 20 µM in assay [3] and more than 20 µM in assay [4]. In addition, the Emax in assay [1] (setting [6]) was 97%; in assay [2] (setting [8]), 97%; in assay [3] (setting [9]) it was 22%; in assay [4] (setting [10]) it was 15%.
For the compound `CCOC(=O)N1CCC2(CC(N3CCC([C@@H]4CCCN4C(=O)CCc4ccccn4)CC3)C2)C1` (single isomer, unassigned) [2-62 Isomer 2], the EC50 in assay [1] (setting [5]) was 15.8 nM; in assay [2] (setting [7]), more than 20000 nM; in assay [3], more than 20 µM; in assay [4] it was more than 20 µM. The Emax is 65% in assay [1] (setting [6]), 20% in assay [2] (setting [8]), 8% in assay [3] (setting [9]) and 6% in assay [4] (setting [10]).
Turning to `CCOC(=O)N1CCC2(CC(N3CCC(N4CCC[C@@H]4C(F)F)CC3)C2)C1` (single isomer, unassigned) [2-103 Isomer 2], the EC50 in assay [1] (setting [5]) is 20 nM; in assay [2] (setting [7]), 200 nM; in assay [3], more than 20 µM; in assay [4] it was more than 20 µM. Also, the Emax in assay [1] (setting [6]) came to 100%; in assay [2] (setting [8]), 26%; in assay [3] (setting [9]) it was 3%; in assay [4] (setting [10]), 4%.
As for `CCOC(=O)N1CCC2(CC(N3CCC(N4C(=O)CCC4(C)C)CC3)C2)C1` (single isomer, unassigned) [2-117 Isomer 2, ethyl 2-[4-(2,2-dimethyl-5-oxopyrrolidin-1-yl)piperidin-1-yl]-6-azaspiro[3.4]octane-6-carboxylate], the EC50 was 63.1 nM in assay [1] (setting [5]), 6310 nM in assay [2] (setting [7]), more than 20 µM in assay [3] and more than 20 µM in assay [4]. Further, the Emax was found to be 96% in assay [1] (setting [6]), 99% in assay [2] (setting [8]), 7% in assay [3] (setting [9]) and 4% in assay [4] (setting [10]).
On to `COC(=O)N1CCC2(CC(N3CCC(c4nc(Cl)c(Cl)n4C)CC3)C2)C1` (single isomer, unassigned) [1-16 Isomer 2, methyl 2-[4-(4,5-dichloro-1-methyl-1H-imidazol-2-yl)piperidin-1-yl]-6-azaspiro[3.4]octane-6-carboxylate], for which the EC50 was 158 nM in assay [1] (setting [5]), 1580 nM in assay [2] (setting [7]), more than 20 µM in assay [3] and 7.94 µM in assay [4]. Besides, the Emax was 82% in assay [1] (setting [6]), 80% in assay [2] (setting [8]), 1% in assay [3] (setting [9]) and 34% in assay [4] (setting [10]).
`CCOC(=O)N1CCC2(CC(N3CCC([C@@H]4CCCN4C(=O)NCC(F)F)CC3)C2)C1` (single isomer, unassigned) [2-45 Isomer 2]: the EC50 in assay [1] (setting [5]) is 5.01 nM; in assay [2] (setting [7]), 251 nM; in assay [3], more than 20 µM; in assay [4] it was more than 20 µM. In addition, the maximal effect (Emax) is 111% in assay [1] (setting [6]), 67% in assay [2] (setting [8]), 5% in assay [3] (setting [9]) and 5% in assay [4] (setting [10]).
As to `CCOC(=O)N1CCC2(CC(N3CCC(c4nccn4C(=O)OCC)CC3)C2)C1` (single isomer, unassigned) [1-8 Isomer 2, ethyl 2-{4-[1-(ethoxycarbonyl)-1H-imidazol-2-yl]piperidin-1-yl}-6-azaspiro[3.4]octane-6-carboxylate], the EC50 in assay [1] (setting [5]) was 15.8 nM; in assay [2] (setting [7]) it was 316 nM; in assay [3] it was more than 20 µM; in assay [4] it was more than 20 µM. Besides, the Emax in assay [1] (setting [6]) was 98%; in assay [2] (setting [8]) it was 76%; in assay [3] (setting [9]) it was 0%; in assay [4] (setting [10]), 34%.
For the compound `CCOC(=O)N1CCC2(CC(N3CCC([C@@H]4CCCN4C(=O)N4CCCC4)CC3)C2)C1` (single isomer, unassigned) [2-32 Isomer 2], the EC50 was 12.6 nM in assay [1] (setting [5]), 2510 nM in assay [2] (setting [7]), more than 20 µM in assay [3] and more than 20 µM in assay [4]. The maximal effect (Emax) in assay [1] (setting [6]) amounted to 110%; in assay [2] (setting [8]), 69%; in assay [3] (setting [9]) it was 11%; in assay [4] (setting [10]), 52%.
Take `CCOC(=O)N1CCC2(CC(N3CCC([C@@H]4CCCN4C(=O)CCNC(=O)OCc4ccccc4)CC3)C2)C1` (single isomer, unassigned) [2-65 Isomer 2]: the EC50 in assay [1] (setting [5]) was 7.94 nM; in assay [2] (setting [7]) it was 158 nM; in assay [3], more than 20 µM; in assay [4], more than 20 µM. For the same compound, the Emax came to 107% in assay [1] (setting [6]), 60% in assay [2] (setting [8]), 1% in assay [3] (setting [9]) and 1% in assay [4] (setting [10]).

The record behind these values is US9926297B2, “Bicyclic AZA compounds as muscarinic M1 receptor and/or M4 receptor agonists” (Heptares Therapeutics Limited, priority 2014, dated 2018).
